Experimental data from US6071709A, “Nerve growth factor/receptor complex” (The United States of America as represented by the …, priority 1992, dated 2000).

System: trk
Assay: Growth factor stimulation of trk transfected 3T3 cells (pJM7-23), COS cell supernatants, Ptyr blot
Format: cell-based
Conditions: trk-expressing 3T3 cells (pJM7-23), 100 μl/ml NGF-COS cell supernatant, 10 minutes at 37° C.
Description: To study growth factor stimulation in cells transfected with trkB, NIH 3T3 trk transfected 3T3 (pJM7-23), trkB transfected 3T3 cells (pJM8-3) and non-transfected 3T3 cells (control cells) were exposed to media or media containing 100 μl/ml of NGF-COS cell supernatant, 100 μl/ml NT-3 COS cell supernatant, 5 μl/ml human platelet extract, or 50 μl/ml human platelet extract, for 10 minutes at 37° C. The plates were rinsed, lysed, and the trk or trkB was immunoprecipitated with rabbit antisera 443 and protein A Sepharose in the presence or absence of 10 μg/ml blocking peptide. After washing, the beads were denatured in sample buffer, the proteins were separated on a 7.5% gel and transferred to nitrocellulose. The blots were blocked with 2% BSA and probed with an antiphosphotyrosine monoclonal antibody (4G10). After binding of alkaline phosphate-conjugatedrabbit-anti-mouse antibody, the blots were washed and developed with BCIP and NBT.

With “NGF: neurotrophic polypeptide factor, nerve growth factor; ligand of trk proto-oncogene receptor” as the substance, how does the “stimulation of trk tyrosine phosphorylation” value read?
The value was “stimulated”.
